Test results reported in PMC11618052, “Design, synthesis, and antiproliferative activity of new 1,2,3-triazole/quinazoline-4-one hybrids as dual EGFR/BRAF^V600E inhibitors” (RSC Advances, 2024).
“And” between values parts separate entries of the source, which are not always exact repeats. Equal entries are not always repeated.

Experiments:
Caspase-3 = Caspase-3 activation assay in MCF-7; format: cell-based, human; conditions: for Caspase-3 Fold change: MCF-7, versus untreated control; for Caspase-3 Conc.: MCF-7 cancer cell line
Description: Compounds 8g and 8h were evaluated as caspase-3, 8 and Bax activators and as down-regulator of the anti-apoptotic protein Bcl2 against the MCF-7 breast cancer cell line.[40] Appendix A ^† contains more details.
Compounds 8g and 8h were evaluated as caspase-3 activators against the MCF-7 breast cancer cell line,[40] with results presented in Table 3. […] The compounds 8g and 8h increased the concentration of caspase-3 protein in the MCF-7 cancer cell line, showing levels that were 11 and 10 times higher than the untreated control and higher than staurosporine. […]
cancer cells, commercially available ELISA kits (Invitrogen) were used according to manufacturer’s instructions.
4.2.1.5. Caspase-3 activation assay
Allow all reagents to reach room temperature before use. Gently mix all liquid reagents prior to use. Determine the number of 8-well strips needed for the assay. Insert these in the frame(s) for current use. Add 100 μl of the Standard Diluent Buffer to the zero standard wells. Well(s) reserved for chromogen blank should be left empty. Add 100 μl of standards and controls or diluted samples to the appropriate microtiter wells. The sample dilution chosen should be optimized for each experimental system. Tap gently on side of plate to mix. Cover wells with plate cover and incubate for 2 hours at room temperature. Thoroughly aspirate or decant solution from wells and discard the liquid, Wash wells 4 times. Pipette 100 μl of Caspase-3 (Active) Detection Antibody solution into each well except the chromogen blank(s). Tap gently on the side of the plate to mix. Cover plate with plate cover and incubate for 1 hour at room temperature. Thoroughly aspirate or decant solution from wells and discard the liquid, Wash wells 4 times. Add 100 μl Anti-Rabbit IgG HRP Working Solution to each well except the chromogen blank(s). Prepare the working dilution as described in Preparing IgG HRP. Cover wells with the plate cover and incubate for 30 minutes at room temperature. Thoroughly aspirate or decant solution from wells and discard the liquid. Wash wells 4 times. Add 100 μl of Stabilized Chromogen to each well. The liquid in the wells will begin to turn blue. Incubate for 30 minutes at room temperature and in the dark. The incubation time for chromogen substrate is often determined by the microtiter plate reader used. Many plate readers have the capacity to record a maximum optical density (O.D.) of 2.0. The O.D. values should be monitored, and the substrate reaction stopped before the O.D. of the positive wells exceeds the limits of the instrument. The O.D. values at 450 nm can only be read after the Stop Solution has been added to each well. If using a reader that records only to 2.0 O.D., stopping the assay after […]
Add 100 μl of Stop Solution to each well. Tap side of plate gently to mix. The solution in the wells should change from blue to yellow. Read the absorbance of each well at 450 nm having blanked the plate reader against a chromogen blank composed of 100 μl each of Stabilized Chromogen and Stop Solution. Read the plate within 2 hours after adding the Stop Solution. Use a curve fitting software to generate the standard curve. A four-parameter algorithm provides the best standard curve fit. Read the concentrations for unknown samples and controls from the standard curve. Multiply value(s) obtained for sample(s) by the appropriate dilution factor to correct for the dilution in step 3. Samples producing signals greater than that of the highest standard should be diluted in Standard Diluent Buffer and reanalyzed. […]
Tubulin.). The absorbance of each microwell was read on a spectro-photometer at 450 nm. A standard curve is prepared from 7human Caspase-8 standard dilutions and human Caspase-8 concentration determined.
4.2.1.7. Bax activation assay

breast cancer (MCF-7) = assay: Antiproliferative MTT assay, MCF-7; format: cell-based; conditions: Homo sapiens, MCF7, MCF-7 breast cancer cells, read-out: Antiproliferative activity IC50 ± SEM, MCF-7
Description: The median inhibitory concentration (IC50) and GI50 (mean IC50) for the four cancer cell lines were calculated. Appendix A ^† contains more details. […]

EGFR = biological target: T1, EGFR (Homo sapiens, UniProt P00533); assay: EGFR-TK inhibitory assay; format: biochemical; conditions: read-out: EGFR inhibition IC50 ± SEM
T1 construct: 645–1186; His6 (N); made in house; host or cells: Sf-9 insect cells (baculovirus; pBlueBacHis2B / pFASTBacHTc)
T1 sequence (P00533 669-1210): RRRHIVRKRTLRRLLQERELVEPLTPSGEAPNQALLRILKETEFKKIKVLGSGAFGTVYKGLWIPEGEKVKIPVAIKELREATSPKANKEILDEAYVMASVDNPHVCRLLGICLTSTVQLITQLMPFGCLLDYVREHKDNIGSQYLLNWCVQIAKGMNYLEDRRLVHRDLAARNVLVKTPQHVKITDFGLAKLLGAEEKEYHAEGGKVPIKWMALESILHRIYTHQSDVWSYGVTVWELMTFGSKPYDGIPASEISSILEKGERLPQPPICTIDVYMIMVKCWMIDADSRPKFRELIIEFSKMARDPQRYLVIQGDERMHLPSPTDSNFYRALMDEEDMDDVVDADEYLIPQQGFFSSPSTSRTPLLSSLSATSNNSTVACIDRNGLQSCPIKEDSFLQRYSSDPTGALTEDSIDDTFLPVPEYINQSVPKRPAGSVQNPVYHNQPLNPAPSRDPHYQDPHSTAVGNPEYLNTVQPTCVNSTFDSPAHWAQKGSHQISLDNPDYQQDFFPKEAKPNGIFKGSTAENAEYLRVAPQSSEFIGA
Description: Sf-9 cells were infected for 72h for protein expression. […]
centrifugation for 20 min.
Histidine-linked proteins were first eluted with 250 and then […]
using wash buffer. Europium-tagged antiphosphotyrosine antibody (75 µL, 400 ng) was added to each well followed by incubation of 1h and then washing of the plates using buffer. The enhancement solution was added to each well and the signal was recorded at excitation and […]
The autophosphorylation percentage inhibition by compounds was calculated using the following equation: […]

Bax = Bax level assay in MCF-7; format: cell-based, human; conditions: for Bax Fold change: MCF-7, versus untreated control; for Bax Conc.: MCF-7 cancer cell line
Description: Compounds 8g and 8h were evaluated as caspase-3, 8 and Bax activators and as down-regulator of the anti-apoptotic protein Bcl2 against the MCF-7 breast cancer cell line.[40] Appendix A ^† contains more details. […]
Bring all reagents, except the human Bax-α Standard, to room temperature for at least 30 minutes prior to opening. The human Bax-α Standard solution should not be left at room temperature for more than 10 minutes. All standards, controls and samples should be run in duplicate. Refer to the Assay Layout Sheet to determine the number of wells to be used and put any remaining wells with the desiccant back into the pouch and seal the ziploc. Store unused wells at 4 °C. Pipet 100 μL of Assay Buffer into the S0 (0 pg/mL standard) wells. Pipet 100 μL of Standards #1 through #6 into the appropriate wells. Pipet 100 μL of the Samples into the appropriate wells. Tap the plate gently to mix the contents. Seal the plate and incubate at room temperature on a plate shaker for 1 hour at ~500 rpm. Empty the contents of the wells and wash by adding 400 μL of wash solution to every well. Repeat the wash 4 more times for a total of 5 washes. After the final wash, empty or aspirate the wells and firmly tap the plate on a lint free paper towel to remove any remaining wash buffer.
Pipet 100 μL of yellow Antibody into each well, except the Blank. Seal the plate and incubate at room temperature on a plate shaker for 1 hour at ~500 rpm. Empty the contents of the wells and wash by adding 400 μL of wash solution to every well. Repeat the wash 4 more times for a total of 5 washes. After the final wash, empty or aspirate the wells and firmly tap the plate on a lint free paper towel to remove any remaining wash buffer. Add 100 μL of blue Conjugate to each well, except the Blank. Seal the plate and incubate at room temperature on a plate shaker for 30 minutes […]
Pipet 100 μL of Substrate Solution into each well. Incubate for 30 minutes at room temperature on a plate shaker at ~500 rpm. Pipet 100 μL Stop Solution to each well. Blank the plate reader against the Blank wells, read the optical density at 450 nm. Calculate the average net Optical Density (OD) bound for each standard and sample by subtracting the average Blank OD from the average OD for each standard and sample. Using linear graph paper, plot the Average Net OD for each standard versus Bax concentration in each standard. Approximate a straight line through the points.
The concentration of Bax in the unknowns can be determined by interpolation. […]
Remove plate cover and empty the wells. […]
Incubate the microwell strips at room temperature (18° to 25°C) for about 15 minutes, if available on a rotator set at 100 rpm.

IC50 (breast cancer (MCF-7))	IC50 (EGFR)	SMILES	Caspase-3 Fold change (Caspase-3)	Caspase-3 Conc. (Caspase-3)	Bax Fold change (Bax)	Bax Conc. (Bax)	Bax Conc. (Bax; listed as staurosporine)
22 ± 1 nM	74 ± 5 nM	Cc1ccc(-n2cc(CSc3nc4ccccc4c(=O)n3-c3ccc(C)cc3)nn2)cc1 [Compound 8h, 2-(((1-(p-Tolyl)-1H-1,2,3-triazol-4-yl)methyl)thio)-3-(p-tolyl)quinazolin-4(3H)-one]	10	650 ± 5 pg/mL	37	295 pg/mL and 295 ± 9 pg/mL	
		CN[C@@H]1C[C@H]2O[C@@](C)([C@@H]1OC)n1c3ccccc3c3c4c(c5c6ccccc6n2c5c31)C(=O)NC4 [Staurosporine, reference compound]	8	503 ± 4 pg/mL	35	280 ± 7 pg/mL	280 pg/mL
20 ± 1 nM	68 ± 4 nM	COc1ccc(-n2cc(CSc3nc4ccccc4c(=O)n3-c3ccc(C)cc3)nn2)cc1 [Compound 8g, 2-(((1-(4-Methoxyphenyl)-1H-1,2,3-triazol-4-yl)methyl)thio)-3-(p-tolyl)quinazolin-4(3H)-one]	11	695 ± 5 pg/mL	39	315 pg/mL and 315 ± 9 pg/mL	
